Experiments:
[1] = biological target: wild type PRC2 (wtPRC2) complex (Homo sapiens, UniProt Q15910); test: EZH2 LC-MS Assay; type: biochemical; conditions: 40 nM wtPRC2 complex, 30 uM SAM, 1.5 uM H3K27me1 and 3 uM H3K27me3 peptides; SAH production
Description: Representative compounds of the invention were serially and separately diluted 3-fold in DMSO to obtain twelve concentrations. Then the test compounds at each concentration (120 nL of each) were transferred by Mosquito into a 384-well Perkin Elmer ProxiPlate 384 plus plates. Solutions (6 μL) of 80 nM wild type PRC2 (wtPRC2) complex and 60 µM SAM in reaction buffer (20 mM Tris, pH 8.0, 0.1% BSA, 0.01% Triton, 0.5 mM DTT) were added to the wells that were then incubated with the test compound for 20 min. A 6 μL solution of 3 µM of the substrate peptide H3K27me1 (histone H3 [21-44]-K27me1-biotin) and 6 μM regulatory peptide H3K27me3 (histone H3 [21-44]-K27me3) in reaction buffer was added to initiate each reaction. The final components in the reaction solution include 40 nM wtPRC2 complex, 30 µM SAM, 1.5 µM H3K27me1 and 3 µM H3K27me3 peptides with varying concentration of the compounds. A positive control consisted of the enzyme at 40 nM, 30 μM SAM, 1.5 µM H3K27me1 and 3 µM H3K27me3 in the absence of the test compound, and a negative control consisted of 30 µM SAM, 1.5 µM H3K27me1 and 3 μM H3K27me3 only. Each reaction was incubated at room temperature for 120 min, then stopped by addition of 3 μL per of quench solution (2.5% TFA with 320 nM d4-SAH). The reaction mixture was centrifuged (Eppendorf centrifuge 5810, Rotor A-4-62) for 2 min at 2000 rpm and read on an API 4000 triple quadrupole mass spec with Turbulon Spray (Applied Biosystem) coupled with Prominence UFLC (Shimadzu). The levels of SAH production were normalized based on the values coming from the positive and negative controls to give percent enzyme activities. The data were fit to a dose response equation using the program Helios to get the […] values of the test compound.

[2] = tested on: H3K27 methylation in G401 cell; test: ELISA (H3K27 methylation) assay; type: cell-based; conditions: cultured 48 h with compound, normalized using H3 signal
Description: ELISA (H3K27 methylation) assay
Representative compounds of the invention were serially and separately diluted 3-fold in DO to obtain a total of eight or twelve concentrations. Then the compounds were added to G401 cell cultured in 384-well plate at 1:500 dilution to obtain the highest concentration of 20 μM. The cells were further cultured for 48 h before ELISA procedure.
Histone extraction: Cells, in 384-well plate, were washed with PBS (10 x PBS buffer (80 g NaCl (Sigma, S3014), 2 g KCl (Sigma, 60128), 14.4 g Na2HPO4 (Sigma, S5136), 2.4 g KH2PO4 (Sigma, P9791) to 1 L water, pH to 7.4) and lysed with the addition of lysis buffer (0.4N HCl; 45 μl per well). The plate was gently agitated at 4° C. for 30 min. The cell lysate was neutralized with neutralization buffer (0.5 M sodium phosphate dibasic, pH 12.5. 1 mM DTT; 36 µL per well). The plate was agitated to ensure the lysates were well mixed prior to the ELISA protocol.
ELISA protocol: Cell lysates were transferred to the wells of a 384-well plate and the final volume was adjusted to 50 μL per well with PBS. The plate was sealed, centrifuged at 2,000 rpm for 2 min and incubated at 4° C. for about 16 h. The plate was washed with TBST buffer (1 x TBS (10x TBS: 24.2 g Tris (Sigma, T6066), 80 g NaCl (Sigma, S3014) to 1 L of water and adjust pH to 7.6 with HCl) with 0.1% Tween-20). Blocking buffer (TBST, 5% BSA; 50 µL per well) was added and the plate was incubated for 1 h at rt. The blocking buffer was removed and primary antibody was added (30 μL per well). The following dilutions were performed with blocking buffer: for anti-H3K27me3 antibody (Cell Signaling Technology, #9733), dilution was 1:1000; for anti-H3K27me2 antibody (Cell Signaling Technology, #9288), dilution was 1:100; for anti-H3 antibody (Abcam, Cat #24834), dilution was 1:1000. The primary antibody was incubated in the plate at rt for 1 h. The wells were washed with TBST and incubated with secondary antibody for 1 h at rt. For secondary antibodies, the following dilutions were carried out with blocking buffer: anti-rabbit antibody (Jackson ImmunoResearch, #111-035-003), dilution was 1:2000; and anti-mouse antibody (Cell signaling technology, #7076), dilution was 1:1000.
After 1 h of incubation at rt, the wells were washed with TBST. ECL substrate (Pierce, #34080) was added at 30 μL per well and the plates were centrifuged at 2,000 rpm for 2 min. The signal was read using a PerkinElmer Envision Reader. The H3K27 methylation readouts were normalized using H3 signal and then percentage inhibition was calculated against the samples treated with DO. The data were fit to a dose response curve using the program Helios to get the IC50 values of the test compound.

Sequence of wild type PRC2 (wtPRC2) complex (Q15910 whole entry): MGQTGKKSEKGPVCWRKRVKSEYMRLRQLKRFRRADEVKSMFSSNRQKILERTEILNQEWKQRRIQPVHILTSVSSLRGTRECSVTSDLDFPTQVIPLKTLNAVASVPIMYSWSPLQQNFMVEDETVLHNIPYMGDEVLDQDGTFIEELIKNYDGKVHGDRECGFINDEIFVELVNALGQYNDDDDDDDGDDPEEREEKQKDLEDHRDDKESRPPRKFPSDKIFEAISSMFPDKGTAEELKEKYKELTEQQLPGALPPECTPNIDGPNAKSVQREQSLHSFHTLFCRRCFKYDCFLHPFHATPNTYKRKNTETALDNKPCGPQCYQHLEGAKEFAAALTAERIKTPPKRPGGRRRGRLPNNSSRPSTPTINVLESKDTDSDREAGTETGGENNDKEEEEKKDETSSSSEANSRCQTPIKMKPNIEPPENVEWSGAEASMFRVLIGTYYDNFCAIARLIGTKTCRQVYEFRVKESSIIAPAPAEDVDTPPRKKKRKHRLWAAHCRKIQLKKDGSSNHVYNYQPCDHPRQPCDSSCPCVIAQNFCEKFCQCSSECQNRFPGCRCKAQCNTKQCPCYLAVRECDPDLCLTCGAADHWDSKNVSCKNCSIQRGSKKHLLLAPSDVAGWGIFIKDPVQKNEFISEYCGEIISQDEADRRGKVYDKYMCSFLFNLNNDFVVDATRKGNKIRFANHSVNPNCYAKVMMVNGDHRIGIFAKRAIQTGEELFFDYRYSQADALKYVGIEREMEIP
Sequence of wild type PRC2 (wtPRC2) complex (O75530 whole entry partner): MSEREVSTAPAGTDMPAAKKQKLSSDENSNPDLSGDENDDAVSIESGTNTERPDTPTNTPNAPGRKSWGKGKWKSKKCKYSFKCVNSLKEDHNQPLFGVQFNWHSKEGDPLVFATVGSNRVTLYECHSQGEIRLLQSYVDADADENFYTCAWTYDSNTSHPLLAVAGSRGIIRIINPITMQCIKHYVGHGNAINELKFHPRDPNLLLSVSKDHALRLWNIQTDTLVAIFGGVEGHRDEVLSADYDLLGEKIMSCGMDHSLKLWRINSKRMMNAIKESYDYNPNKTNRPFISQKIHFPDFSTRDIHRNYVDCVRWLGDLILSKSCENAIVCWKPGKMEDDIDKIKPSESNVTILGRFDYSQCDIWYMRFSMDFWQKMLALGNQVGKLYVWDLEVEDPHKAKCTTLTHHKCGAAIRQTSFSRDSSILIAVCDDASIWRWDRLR
Sequence of wild type PRC2 (wtPRC2) complex (Q15022 whole entry partner): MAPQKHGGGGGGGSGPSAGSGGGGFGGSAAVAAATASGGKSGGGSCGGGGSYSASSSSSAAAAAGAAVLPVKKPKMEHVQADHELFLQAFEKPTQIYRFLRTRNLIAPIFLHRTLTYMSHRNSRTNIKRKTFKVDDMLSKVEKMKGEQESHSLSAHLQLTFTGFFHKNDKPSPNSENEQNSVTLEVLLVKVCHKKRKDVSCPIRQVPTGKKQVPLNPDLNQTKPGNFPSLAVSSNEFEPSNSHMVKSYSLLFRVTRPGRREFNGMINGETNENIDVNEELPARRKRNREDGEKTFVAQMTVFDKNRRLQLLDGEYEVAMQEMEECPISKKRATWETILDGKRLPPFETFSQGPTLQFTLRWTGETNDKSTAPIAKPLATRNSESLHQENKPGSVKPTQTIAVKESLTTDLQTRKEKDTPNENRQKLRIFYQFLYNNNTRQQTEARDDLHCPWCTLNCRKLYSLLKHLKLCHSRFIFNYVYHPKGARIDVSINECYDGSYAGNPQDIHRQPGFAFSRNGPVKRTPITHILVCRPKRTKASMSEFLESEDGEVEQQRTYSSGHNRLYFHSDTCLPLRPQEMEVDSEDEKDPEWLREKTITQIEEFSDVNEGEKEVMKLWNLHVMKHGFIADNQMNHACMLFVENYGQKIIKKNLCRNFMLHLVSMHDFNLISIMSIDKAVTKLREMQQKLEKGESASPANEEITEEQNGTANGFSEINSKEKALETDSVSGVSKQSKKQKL

Compound: Cc1ccc2ccc(N[C@H]3CC[C@H](CNc4ncc([C@@H](CO)C(=O)NC5COC5)cn4)CC3)nc2c1Cl (single isomer, unassigned) [Example 7, (S)-2-(2-((((1r,4S)-4-((8-chloro-7-methylquinolin-2-yl)amino)cyclohexyl)methyl)amino)pyrimidin-5-yl)-3-hydroxy-N-(oxetan-3-yl)propanamide; or (R)-2-(2-((((1r,4R)-4-((8-chloro-7-methylquinolin-2-yl)amino)cyclohexyl)methyl)amino)pyrimidin-5-yl)-3-hydroxy-N-(oxetan-3-yl)propanamide]
- IC50 [1]: 50 to 100 nM
- IC50 ([2]; Homo sapiens, G-401, 48 h): 10 to 100 nM

Compound: Cc1ccc2ccc(N[C@H]3CC[C@H](CNc4ncc([C@@H](CO)C(=O)NC5COC5)cn4)CC3)nc2c1Cl (single isomer, unassigned) [Example 8, (S)-2-(2-((((1r,4S)-4-((8-chloro-7-methylquinolin-2-yl)amino)cyclohexyl)methyl)amino)pyrimidin-5-yl)-3-hydroxy-N-(oxetan-3-yl)propanamide; or (R)-2-(2-((((1r,4R)-4-((8-chloro-7-methylquinolin-2-yl)amino)cyclohexyl)methyl)amino)pyrimidin-5-yl)-3-hydroxy-N-(oxetan-3-yl)propanamide]
- IC50 [1]: < 50 nM
- IC50 [2]: < 10 nM

Compound: Cc1ccc2ccc(N[C@H]3CC[C@H](CNc4ncc([C@H](O)C(=O)NC5COC5)cn4)CC3)nc2c1Cl (single isomer, unassigned) [Example 10, (S)-2-(2-((((1r,4S)-4-((8-chloro-7-methylquinolin-2-yl)amino)cyclohexyl)methyl)amino)pyrimidin-5-yl)-2-hydroxy-N-(oxetan-3-yl)acetamide; or (R)-2-(2-((((1r,4R)-4-((8-chloro-7-methylquinolin-2-yl)amino)cyclohexyl)methyl)amino)pyrimidin-5-yl)-2-hydroxy-N-(oxetan-3-yl)acetamide]
- IC50 [1]: 50 to 100 nM
- IC50 ([2]; Homo sapiens, G-401, 48 h): 10 to 100 nM

Compound: Cc1ccc2ccc(N[C@H]3CC[C@H](CNc4ncc([C@H](O)C(=O)NC5COC5)cn4)CC3)nc2c1Cl (single isomer, unassigned) [Example 11, (S)-2-(2-((((1r,4S)-4-((8-chloro-7-methylquinolin-2-yl)amino)cyclohexyl)methyl)amino)pyrimidin-5-yl)-2-hydroxy-N-(oxetan-3-yl)acetamide; or (R)-2-(2-((((1r,4R)-4-((8-chloro-7-methylquinolin-2-yl)amino)cyclohexyl)methyl)amino)pyrimidin-5-yl)-2-hydroxy-N-(oxetan-3-yl)acetamide]
- IC50 [1]: < 50 nM
- IC50 [2]: < 10 nM

Compound: Cc1ccc2ccc(N[C@H]3CC[C@H](CNc4ncc([C@H](C)C(=O)NC5COC5)cn4)CC3)nc2c1Cl (single isomer, unassigned) [Example 13, (S)-2-(2-((((1r,4S)-4-((8-chloro-7-methylquinolin-2-yl)amino)cyclohexyl)methyl)amino)pyrimidin-5-yl)-N-(oxetan-3-yl)propanamide; or (R)-2-(2-((((1r,4R)-4-((8-chloro-7-methylquinolin-2-yl)amino)cyclohexyl)methyl)amino)pyrimidin-5-yl)-N-(oxetan-3-yl)propanamide]
- IC50 [1]: < 50 nM

Compound: Cc1ccc2ccc(N[C@H]3CC[C@H](CNc4ncc([C@H](C)C(=O)NC5COC5)cn4)CC3)nc2c1Cl (single isomer, unassigned) [Example 14, (S)-2-(2-((((1r,4S)-4-((8-chloro-7-methylquinolin-2-yl)amino)cyclohexyl)methyl)amino)pyrimidin-5-yl)-N-(oxetan-3-yl)propanamide; or (R)-2-(2-((((1r,4R)-4-((8-chloro-7-methylquinolin-2-yl)amino)cyclohexyl)methyl)amino)pyrimidin-5-yl)-N-(oxetan-3-yl)propanamide]
- IC50 [1]: < 50 nM

Compound: Cc1ccc2ccc(N[C@H]3CC[C@H](CNc4ncc(CC(=O)NC5COC5)cn4)CC3)nc2c1Cl [Example 1, 2-(2-((((1R,4R)-4-((8-chloro-7-methylquinolin-2-yl)amino)cyclohexyl)methyl)amino)pyrimidin-5-yl)-N-(oxetan-3-yl)acetamide]
- IC50 [1]: < 50 nM
- IC50 ([2]; Homo sapiens, G-401, 48 h): < 10 nM

Compound: Cc1ccc2ccc(N[C@H]3CC[C@H](CNc4ncc(CC(=O)N(C)C5COC5)cn4)CC3)nc2c1Cl [Example 2, 2-(2-((((1r,4r)-4-((8-chloro-7-methylquinolin-2-yl)amino)cyclohexyl)methyl)amino)pyrimidin-5-yl)-N-methyl-N-(oxetan-3-yl)acetamide]
- IC50 [1]: < 50 nM
- IC50 ([2]; Homo sapiens, G-401, 48 h): < 10 nM

Compound: Cc1ccc2ccc(N[C@H]3CC[C@H](CNc4ncc(C(F)(F)C(=O)NC5COC5)cn4)CC3)nc2c1Cl [Example 3, 2-(2-((((1r,4r)-4-((8-chloro-7-methylquinolin-2-yl)amino)cyclohexyl)methyl)amino)pyrimidin-5-yl)-2,2-difluoro-N-(oxetan-3-yl)acetamide]
- IC50 [1]: < 50 nM
- IC50 ([2]; Homo sapiens, G-401, 48 h): < 10 nM

Compound: Cc1ccc2ccc(N[C@H]3CC[C@H](CNc4ncc(C(C)(O)C(=O)NC5COC5)cn4)CC3)nc2c1Cl (some centres unmarked) [Example 4, 2-(2-((((1r,4r)-4-((8-chloro-7-methylquinolin-2-yl)amino)cyclohexyl)methyl)amino)pyrimidin-5-yl)-2-hydroxy-N-(oxetan-3-yl)propanamide]
- IC50 [1]: < 50 nM
- IC50 ([2]; Homo sapiens, G-401, 48 h): > 100 nM

Compound: Cc1ccc2ccc(N[C@H]3CC[C@H](CNc4ncc(C(C#N)C(=O)NC5COC5)cn4)CC3)nc2c1Cl (some centres unmarked) [Example 5, 2-(2-((((1r,4r)-4-((8-chloro-7-methylquinolin-2-yl)amino)cyclohexyl)methyl)amino)pyrimidin-5-yl)-2-cyano-N-(oxetan-3-yl)acetamide]
- IC50 [1]: < 50 nM
- IC50 ([2]; Homo sapiens, G-401, 48 h): < 10 nM

Compound: Cc1ccc2ccc(N[C@H]3CC[C@H](CNc4ncc(C(CO)C(=O)NC5COC5)cn4)CC3)nc2c1Cl (some centres unmarked) [Example 6, 2-(2-((((1r,4r)-4-((8-chloro-7-methylquinolin-2-yl)amino)cyclohexyl)methyl)amino)pyrimidin-5-yl)-3-hydroxy-N-(oxetan-3-yl)propanamide]
- IC50 [1]: < 50 nM
- IC50 ([2]; Homo sapiens, G-401, 48 h): < 10 nM

Compound: Cc1ccc2ccc(N[C@H]3CC[C@H](CNc4ncc(C(O)C(=O)NC5COC5)cn4)CC3)nc2c1Cl (some centres unmarked) [Example 9, 2-(2-((((1r,4r)-4-((8-chloro-7-methylquinolin-2-yl)amino)cyclohexyl)methyl)amino)pyrimidin-5-yl)-2-hydroxy-N-(oxetan-3-yl)acetamide]
- IC50 [1]: < 50 nM
- IC50 ([2]; Homo sapiens, G-401, 48 h): < 10 nM

Compound: Cc1ccc2ccc(N[C@H]3CC[C@H](CNc4ncc(C(C)C(=O)NC5COC5)cn4)CC3)nc2c1Cl (some centres unmarked) [Example 12, 2-(2-((((1r,4r)-4-((8-chloro-7-methylquinolin-2-yl)amino)cyclohexyl)methyl)amino)pyrimidin-5-yl)-N-(oxetan-3-yl)propanamide]
- IC50 [1]: < 50 nM
- IC50 ([2]; Homo sapiens, G-401, 48 h): < 10 nM
